Experimental data taken from US20230135894A1, “MK2 DEGRADERS AND USES THEREOF” (Kymera Therapeutics, Inc., priority 2021, published 2023).

Legend:
MK2 [1] = target: T1, MK2 (Homo sapiens, UniProt P49137); assay: MK2 degradation in human THP-1 monocytic cells (MSD, 24 h); format: cell-based; set-up: endogenous in cells; key to MK2 MSD THP-1 degradation 24 h GMean External Abs DC50: A (<0.001 μM); B (0.001-0.01 μM); C (0.01-0.1 μM); D (>0.1 μM); —: “-”=not tested or inactive; details: for Dmax: THP-1, THP-1 cells; for DC50: read-out: MK2 MSD THP-1 degradation 24 h GMean External Abs DC50
Procedure, shortened: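 Readout: residual MK2 protein in THP-1 lysates, measured by MSD electrochemiluminescence sandwich assay after 24 h compound exposure (≤10-point serial dilutions, 0.1% DMSO, 37 °C). Curves normalised between lysis-buffer and DMSO-cell signals; DC50 by 4-parameter logistic fit.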

MK2 [2] = target: T1, MK2; assay: MK2 degradation in human SW1353 cells (MSD, 24 h); format: cell-based; set-up: endogenous in cells; host or cells: SW-1353 (ATCC HTB-94); key to MK2 MSD SW1353 degradation 24 h GMean External Abs DC50: A (<0.001 μM); B (0.001-0.01 μM); C (0.01-0.1 μM); D (>0.1 μM); —: “-”=not tested or inactive; details: for Dmax: read-out: MK2 MSD SW 1353 24 h Dmax %; for DC50: read-out: MK2 MSD SW1353 degradation 24 h GMean External Abs DC50
Procedure, shortened: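 DC50 derived by 4-parameter logistic fit, with DMSO-treated signal as top and lysis-buffer signal as bottom. Remaining MK2 was measured by MSD electrochemiluminescent sandwich assay in RIPA lysates of human SW1353 cells exposed for 24 h at 37 °C to serially diluted compound in 0.1% DMSO.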

T1 sequence (P49137 whole entry): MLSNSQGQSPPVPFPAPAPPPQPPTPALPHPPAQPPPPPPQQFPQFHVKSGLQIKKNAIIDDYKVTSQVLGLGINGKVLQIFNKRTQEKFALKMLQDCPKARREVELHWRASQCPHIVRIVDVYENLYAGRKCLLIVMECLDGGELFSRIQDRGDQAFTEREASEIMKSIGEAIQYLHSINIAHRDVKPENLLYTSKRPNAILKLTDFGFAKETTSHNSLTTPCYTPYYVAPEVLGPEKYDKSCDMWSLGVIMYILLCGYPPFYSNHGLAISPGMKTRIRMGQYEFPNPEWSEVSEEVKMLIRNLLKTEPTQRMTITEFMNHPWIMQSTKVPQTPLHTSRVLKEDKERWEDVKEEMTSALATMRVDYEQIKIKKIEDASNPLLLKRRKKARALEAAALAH

SMILES | Dmax (MK2 [1]) [%] | DC50 (MK2 [1]; THP-1 cells) [nM] | MK2 MSD SW1353 degradation 24 h GMean External Abs DC50 (MK2 [2]) | Dmax (MK2 [2]) [%] | DC50 (MK2 [2]) [nM] | MK2 MSD THP-1 degradation 24 h GMean External Abs DC50 (MK2 [1]; THP-1 cells)
Cc1cc(-c2cc(-c3cc4c([nH]3)CCNC4=O)ccn2)cc(C)c1N1CCN(CC2CCN(c3ccc4c(c3)n(C)c(=O)n4C3CCC(=O)NC3=O)CC2)CC1 (stereo not drawn) [Compound I-207] | 50 to 75 | 1 to 10 | — | > 75 |  | 
C[C@@H]1Cc2oc(-c3ccnc(-c4ccc(N5CCN(CC6CCN(c7ccc8c(c7)n(C)c(=O)n8C7CCC(=O)NC7=O)CC6)CC5)cc4)c3)cc2C(=O)N1 (stereo partly drawn) [Compound I-208] | < 50 | > 100 |  | < 50 | > 100 | 
C[C@@H]1Cc2oc(-c3ccnc(-c4ccc(N5CCN(CC6CCN(c7ccc8c(c7)n(C)c(=O)n8C7CCC(=O)NC7=O)CC6)CC5)nc4)c3)cc2C(=O)N1 (stereo partly drawn) [Compound I-209] | < 50 | > 100 | — | < 50 |  | 
O=C1CCN(c2cncc3c(N4CCC(CN5CCN(c6ccc(-c7cc(-c8cc9c([nH]8)CCNC9=O)ccn7)cc6)CC5)CC4)cccc23)C(=O)N1 [Compound I-210] | 50 to 75 | 10 to 100 |  | > 75 | 10 to 100 | 
O=C1CCN(c2cncc3c(N4CCC(CN5CCN(c6ccc(-c7cc(-c8cc9c([nH]8)C8(CC8)CNC9=O)ccn7)cc6)CC5)CC4)cccc23)C(=O)N1 [Compound I-211] | 50 to 75 | 10 to 100 |  | > 75 | 10 to 100 | 
O=C1CCN(c2cncc3c(N4CCN(CC5CCN(c6ccc(-c7cc(-c8cc9c([nH]8)C8(CC8)CNC9=O)ccn7)cc6)CC5)CC4)cccc23)C(=O)N1 [Compound I-212] | > 75 | 10 to 100 |  | > 75 | 10 to 100 | 
Cn1c(=O)n(C2CCC(=O)NC2=O)c2ccc(N3CCC(CN4CCN(c5ccc(-c6cc(-c7cc8c([nH]7)C7(CCC7)CNC8=O)ccn6)cn5)CC4)CC3)cc21 (stereo not drawn) [Compound I-213] | > 75 | < 1 |  | > 75 | < 1 | 
C[C@@H]1CNc2c(sc3ccc4nc(-c5ccc(N6CCN(C[C@@H]7CCN(c8ccc9c(c8)n(C)c(=O)n9C8CCC(=O)NC8=O)C7)CC6)cc5)ccc4c23)C(=O)N1 (stereo partly drawn) [Compound I-214] | 50 to 75 | 1 to 10 |  | > 75 | < 1 | 
C[C@@H]1CNc2c(sc3ccc4nc(-c5ccc(N6CCN(CCOc7ccc8c(c7)n(C)c(=O)n8C7CCC(=O)NC7=O)CC6)cc5)ccc4c23)C(=O)N1 (stereo partly drawn) [Compound I-215] | 50 to 75 |  |  | > 75 | < 1 | —
C[C@@H]1CNc2c(sc3ccc4nc(-c5cc(Cl)cc(N6CCN(CC7CCN(c8ccc9c(c8)n(C)c(=O)n9C8CCC(=O)NC8=O)CC7)CC6)c5)ccc4c23)C(=O)N1 (stereo partly drawn) [Compound I-216] | > 75 | < 1 |  | > 75 | 1 to 10 | 
Cc1cc(N2CCN(CC3CCN(c4ccc5c(c4)n(C)c(=O)n5C4CCC(=O)NC4=O)CC3)CC2)ccc1-c1cc(-c2cc3c([nH]2)C2(CC2)CNC3=O)ccn1 (stereo not drawn) [Compound I-217] | < 50 | > 100 |  | < 50 | > 100 | 
Cn1c(=O)n(C2CCC(=O)NC2=O)c2ccc(N3CCC(CN4CCN(c5ccc(-c6cc(-c7cc8c([nH]7)C7(CC7)CNC8=O)ccn6)c(F)c5)CC4)CC3)cc21 (stereo not drawn) [Compound I-218] | > 75 | < 1 |  | > 75 | < 1 | 
C[C@@H]1CNc2c(sc3ccc4nc(-c5cc(N6CCN(CC7CCN(c8ccc9c(c8)n(C)c(=O)n9C8CCC(=O)NC8=O)CC7)CC6)nc(C(C)(C)O)c5)ccc4c23)C(=O)N1 (stereo partly drawn) [Compound I-219] | < 50 | > 100 |  | < 50 | > 100 | 
Cc1cnc(-c2ccnc(C(=O)NCCCCCCc3ccc4c(c3)n(C)c(=O)n4C3CCC(=O)NC3=O)n2)cc1-n1c(C)cc(OCc2ncc(F)cc2F)c(Cl)c1=O (stereo not drawn) [Compound I-220] | < 50 | > 100 |  | < 50 | > 100 | 
C[C@@H]1CNc2c(sc3ccc4nc(-c5ccc(N6CCN(C[C@H]7C[C@@H](c8ccc9c(c8)n(C)c(=O)n9C8CCC(=O)NC8=O)C7)CC6)cc5)ccc4c23)C(=O)N1 (stereo partly drawn) [Compound I-221] | > 75 | < 1 |  | > 75 | < 1 | 
